Assay results reported in the NIST ThermoML archive (doi:10.1016/j.fluid.2014.01.041).
± gives the expanded uncertainty stated by the source.

Settings: Crystal; DTA

Row | Normal melting temperature [°C] | Structure (SMILES)
1 | 122.0 ± 0.4 | C(=C\c1ccccc1)/CN1CCN(C(c2ccccc2)c2ccccc2)CC1 [cinnarizine]
2 | 106 ± 0.4 | CC(=O)CCCCn1c(=O)c2c(ncn2C)n(C)c1=O [3,7-dimethyl-1-(5-oxohexyl)-3,7-dihydro-1H-purine-2,6-dione]

Row | Structure (SMILES) | Normal melting temperature [°C]
3 | NC(=O)CN1CCCC1=O [2-oxo-1-pyrrolidineacetamide] | 125 ± 0.4
